Reference: patent US20220064167A1, “IMIDAZO-PYRAZOLE CARBOXAMIDE DERIVATIVES AS ANTICANCER AGENTS AND THE SYNTHESIS THEREOF” (AVIDIN KFT., priority 2018, published 2022)

Experiments:
[1] = system: mouse mammary carcinoma 4T1; assay: resazurin viability assay, 72 h (Table 1); format: cell-based; settings: 72h incubation, 156 nM-100 μM
From the text: (§1) In our experiments three different cell lines were used. Cells were purchased from the American Type Culture Collection (ATCC, Manassas, Va., USA). The human breast adenocarcinoma cell line, MCF-7 cells were maintained in Dulbecco's Modified Eagle Medium/Nutrient Mixture F-12 (DMEM/F12) 10% fetal calf serum (FCS, Gibco) and mouse mammary carcinoma 4T1 and human promyelocytic leukemia, HL-60 cells were maintained in Roswell Park Memorial Institute 1640 medium (RPMI-1640) 10% FCS. Media were supplemented with 2 mM GlutaMAX, and 100 U/mL penicillin, 100 μg/mL streptomycin (Life Technologies, Carlsbad, Calif., USA). Cell cultures were maintained at 37° C. in a humidified incubator in an atmosphere of 5% CO2 (Sanyo, Japan).
(§2) For viability assays cells were seeded in 96 well plates (MCF7 and 4T1: 6000, HL60: 120.000 cells/well) and incubated overnight. Compounds were dissolved in dimethyl sulfoxide (DMSO). Cells were treated with an increasing concentration of compounds having the general formula (I.) (156 nM-100 μM). Cell viability was determined after 72h incubation. Resazurin reagent (Sigma-Aldrich) was dissolved in PBS (pH 7.4) at 0.15 mg/ml concentration, sterile filtered (0.22 μm, Merck Millipore) and aliquoted at −20° C. Resazurin reagent (Sigma-Aldrich) was added at a final concentration of 25 μg/ml. After 2 hours incubation at 37° C. 5% CO2 fluorescence (530 nm excitation/580 nm emission) was recorded on a multimode microplate reader (Cytofluor4000, PerSeptive Biosytems). Viability was calculated with relation to untreated control cells and blank wells containing media without cells. IC50 values (50% inhibiting concentration) were calculated by GraphPad Prism® 5 (La Jolla, Calif., USA).

[2] = system: human breast adenocarcinoma cell line, MCF-7; assay: resazurin viability assay, 72 h (Table 1); format: cell-based; settings: MCF7, 72h incubation, 156 nM-100 μM
From the text: as §1, §2

[3] = system: human promyelocytic leukemia, HL-60 cells; assay: resazurin viability assay, 72 h (Table 1); format: cell-based; settings: 72h incubation, 156 nM-100 μM
From the text: as §1, §2

SMILES	IC50 [1]	IC50 [2]	IC50 [3]	melting point
CCCCNC(=O)c1cnn2c(NC(C)(C)CC(C)(C)C)c(C(C)(C)C)[nH]c12 [Example 29, 2-(Tert-butyl)-N-butyl-3-((2,4,4-trimethylpentan-2-yl)amino)-1H-imidazo[1,2-b]pyrazole-7-carboxamide]	> 50 µM	34.1 µM	2.72 µM	147 to 148 °C
CNC(=O)c1cnn2c(NC(C)(C)CC(C)(C)C)c(C(C)(C)C)[nH]c12 [Example 28, 2-(Tert-butyl)-N-methyl-3-((2,4,4-trimethylpentan-2-yl)amino)-1H-imidazo[1,2-b]pyrazole-7-carboxamide]	4.66 µM	4.46 µM	1.52 µM	173 to 174 °C
CC(C)(C)c1[nH]c2c(C(N)=O)cnn2c1Nc1ccc(F)cc1 [Example 21, 2-(Tert-butyl)-3-((4-fluorophenyl)amino)-1H-imidazo[1,2-b]pyrazole-7-carboxamide]	> 50 µM	40.5 µM	24.4 µM	249 to 250 °C
C/C(=C\c1ccccc1)c1[nH]c2c(C(N)=O)cnn2c1NC(C)(C)C [Example 15, (E)-3-(Tert-butylamino)-2-(1-phenylprop-1-en-2-yl)-1H-imidazo[1,2-b]pyrazole-7-carbox-amide]	> 50 µM	> 50 µM	29.2 µM	190 to 191 °C
CC(C)(C)CC(C)(C)Nc1c(C(C)(C)C)[nH]c2c(C(=O)Nc3ccccn3)cnn12 [Example 35, 2-(Tert-butyl)-N-(pyridin-2-yl)-3-((2,4,4-trimethylpentan-2-yl)amino)-1H-imidazo[1,2-b]pyrazole-7-carboxamide]	6.91 µM	8.35 µM	4.38 µM	144 to 145 °C
C=CCC(C)(C)c1[nH]c2c(C(N)=O)cnn2c1NC(C)(C)CC(C)(C)C [Example 26, 2-(2-Methylpent-4-en-2-yl)-3-((2,4,4-trimethylpentan-2-yl)amino)-1H-imidazo[1,2-b]pyrazole-7-carboxamide]	9.95 µM	8.29 µM	1.37 µM	161 to 163 °C
COc1ccc(NC(=O)c2cnn3c(NC(C)(C)CC(C)(C)C)c(C(C)(C)C)[nH]c23)cc1 [Example 43, 2-(Tert-butyl)-N-(4-methoxyphenyl)-3-((2,4,4-trimethylpentan-2-yl)amino)-1H-imidazo[1,2-b]pyrazole-7-carboxamide]	24.7 µM	17.8 µM	1.11 µM	187 to 188 °C
CC(C)(C)CC(C)(C)Nc1c(C2CC2)[nH]c2c(C(N)=O)cnn12 [Example 23, 2-Cyclopropyl-3-((2,4,4-trimethylpentan-2-yl)amino)-1H-imidazo[1,2-b]pyrazole-7-carboxamide]	> 50 µM	> 50 µM	5.49 µM	205 to 207 °C
CC(C)(C)CC(C)(C)Nc1c(C(C)(C)C)[nH]c2c(C(=O)Nc3ccncc3)cnn12 [Example 37, 2-(Tert-butyl)-N-(pyridin-4-yl)-3-((2,4,4-trimethylpentan-2-yl)amino)-1H-imidazo[1,2-b]pyrazole-7-carboxamide]	4.34 µM	2.55 µM	2.71 µM	185 to 186 °C
CC(C)(C)CC(C)(C)Nc1c(C(C)(C)C)[nH]c2c(C(=O)Nc3ccc(F)cc3F)cnn12 [Example 58, 2-(Tert-butyl)-N-(2,4-difluorophenyl)-3-((2,4,4-trimethylpentan-2-yl)amino)-1H-imidazo[1,2-b]pyrazole-7-carboxamide]	> 50 µM	> 50 µM	0.628 µM	174 °C
Cc1ccc(-c2[nH]c3c(C(N)=O)cnn3c2NC(C)(C)CC(C)(C)C)cc1 [Example 6, 2-(p-Tolyl)-3-((2,4,4-trimethylpentan-2-yl)amino)-1H-imidazo[1,2-b]pyrazole-7-carbox-amide]	12.3 µM	17 µM	12.6 µM	218 to 219 °C
CC(C)(C)CC(C)(C)Nc1c(C(C)(C)C)[nH]c2c(C(=O)Nc3nccs3)cnn12 [Example 38, 2-(Tert-butyl)-N-(thiazol-2-yl)-3-((2,4,4-trimethylpentan-2-yl)amino)-1H-imidazo[1,2-b]pyrazole-7-carboxamide]	2.41 µM	1.95 µM	2.86 µM	125 to 127 °C
CCc1[nH]c2c(C(N)=O)cnn2c1NC(C)(C)CC(C)(C)C [Example 24, 2-Ethyl-3-((2,4,4-trimethylpentan-2-yl)amino)-1H-imidazo[1,2-b]pyrazole-7-carboxamide]	> 50 µM	> 50 µM	27.9 µM	207 to 209 °C
CCC(CC)(CCC#N)c1[nH]c2c(C(N)=O)cnn2c1NC(C)(C)CC(C)(C)C [Example 27, 2-(1-Cyano-3-ethylpentan-3-yl)-3-((2,4,4-trimethylpentan-2-yl)amino)-1H-imidazo[1,2-b]pyrazole-7-carboxamide]	11.6 µM	18 µM	14.8 µM	184 to 186 °C
CC(C)(C)CC(C)(C)Nc1c(C(C)(C)C)[nH]c2c(C(=O)Nc3ccc(C#N)cc3)cnn12 [Example 54, 2-(Tert-butyl)-N-(4-cyanophenyl)-3-((2,4,4-trimethylpentan-2-yl)amino)-1H-imidazo[1,2-b]pyrazole-7-carboxamide]	> 50 µM	9.71 µM	1.5 µM	199 °C
CC(C)(C)CC(C)(C)Nc1c(C(C)(C)C)[nH]c2c(C(=O)Nc3ccc([N+](=O)[O-])cc3)cnn12 [Example 53, 2-(Tert-butyl)-N-(4-nitrophenyl)-3-((2,4,4-trimethylpentan-2-yl)amino)-1H-imidazo[1,2-b]pyrazole-7-carboxamide]	27.1 µM	9.94 µM	7.64 µM	199 °C
CC(C)(C)CC(C)(C)Nc1c(C(C)(C)C)[nH]c2c(C(=O)Nc3cccc(F)c3)cnn12 [Example 49, 2-(Tert-butyl)-N-(3-fluorophenyl)-3-((2,4,4-trimethylpentan-2-yl)amino)-1H-imidazo[1,2-b]pyrazole-7-carboxamide]	23.5 µM	17.3 µM	4.47 µM	159 °C
CC(C)(C)CC(C)(C)Nc1c(C(C)(C)C)[nH]c2c(C(=O)Nc3ccc(C(F)(F)F)cc3)cnn12 [Example 47, 2-(Tert-butyl)-N-(4-(trifluoromethyl)phenyl)-3-((2,4,4-trimethylpentan-2-yl)amino)-1H-imidazo[1,2-b]pyrazole-7-carboxamide]	> 50 µM	29 µM	> 50 µM	155 to 156 °C
CC(C)(C)CC(C)(C)Nc1c(-c2ccc(F)cc2)[nH]c2c(C(N)=O)cnn12 [Example 10, 2-(4-Fluorophenyl)-3-((2,4,4-trimethylpentan-2-yl)amino)-1H-imidazo[1,2-b]pyrazole-7-carboxamide]	> 50 µM	> 50 µM	17.5 µM	229 to 230 °C
CC(C)(C)CC(C)(C)Nc1c(C(C)(C)C)[nH]c2c(C(=O)Nc3ccc(F)c(F)c3)cnn12 [Example 59, 2-(Tert-butyl)-N-(3,4-difluorophenyl)-3-((2,4,4-trimethylpentan-2-yl)amino)-1H-imidazo[1,2-b]pyrazole-7-carboxamide]	19 µM	10.3 µM	2.41 µM	162 to 164 °C
Cc1ccccc1NC(=O)c1cnn2c(NC(C)(C)CC(C)(C)C)c(C(C)(C)C)[nH]c12 [Example 40, 2-(Tert-butyl)-N-(o-tolyl)-3-((2,4,4-trimethylpentan-2-yl)amino)-1H-imidazo[1,2-b]pyrazole-7-carboxamide]	> 50 µM	30.6 µM	2.12 µM	172 °C
CC(C)(C)CC(C)(C)Nc1c(C(C)(C)C)[nH]c2c(C(=O)Nc3ccccc3F)cnn12 [Example 48, 2-(Tert-butyl)-N-(2-fluorophenyl)-3-((2,4,4-trimethylpentan-2-yl)amino)-1H-imidazo[1,2-b]pyrazole-7-carboxamide]	> 50 µM	> 50 µM	2.04 µM	153 to 154 °C
COc1cc(-c2[nH]c3c(C(N)=O)cnn3c2NC(C)(C)CC(C)(C)C)ccc1OC(C)=O [Example 8, 4-(7-Carbamoyl-3-((2,4,4-trimethylpentan-2-yl)amino)-1H-imidazo[1,2-b]pyrazol-2-yl)-2-methoxyphenyl acetate]	34.1 µM	40.6 µM	26.6 µM	190 to 191 °C
